Measurements published in paper PMC11785791, “Cryo-EM structure of the calcium-sensing receptor complexed with the kokumi substance γ-glutamyl-valyl-glycine” (Scientific Reports, 2025).

Assay type: physicochemical
Conditions: pH 7.4

Solubility in the assay buffer: low solubility
Structure (SMILES): N[C@@H](Cc1c[nH]c2ccccc12)C(=O)O [L-Trp, L-tryptophan]
